Data from ChEMBL document CHEMBL1201862, “PubChem BioAssay data set” (2004).
Active and inactive are the calls of the source.

Columns and labels:
[1] = growth suppression of PTEN-null colon cells, dose response, cell-based, HCT116 PTEN knockout (AID 1047); format: functional;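 further: HCT116 colon tumor cells with PTEN knocked out; cells exposed to compound for 60 hours before readout; potency for loss of cell viability measured by luminescence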
[2] = growth suppression of beta-catenin-knockout colon cells, dose response, cell-based, HCT116, human colon tumor (AID 1045); format: functional;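 further: HCT116 colon tumor cells with beta catenin knocked out; cells exposed to compound for 60 hours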
[3] = molecular target: T1, Ubiquitin-conjugating enzyme E2 N (Homo sapiens, UniProt P61088); format: functional;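 further: Dose-response confirmation in a TR-FRET assay detecting UBC13-driven polyubiquitin chain formation, inhibition measured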
T1 sequence (P61088 whole entry): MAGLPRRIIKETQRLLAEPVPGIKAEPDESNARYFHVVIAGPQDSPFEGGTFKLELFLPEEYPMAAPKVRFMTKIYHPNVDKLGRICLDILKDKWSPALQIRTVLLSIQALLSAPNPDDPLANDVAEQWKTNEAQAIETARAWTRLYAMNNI

[4] = molecular target: Eukaryotic translation initiation factor 4E (Mus musculus, UniProt P63073); experiment: eIF4E–eIF4G protein interaction inhibitors, dose response, biochemical, TR-FRET (AID 855); format: functional;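 further: potency for disrupting eIF4E binding to eIF4GI seen as loss of FRET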
[5] = cytotoxicity in HEK-293T cells, dose response, cytotoxicity control for TCR NF-kB inhibitor project, luminescence, T-cell screen hits (AID 489026); format: functional, cell-based;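 further: cells exposed to compound about 14 hours before the viability readout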
[6] = molecular target: Heat shock protein HSP 90-alpha (Homo sapiens, UniProt P07900); format: functional, organism-based
[7] = molecular target: T2, Apoptotic protease-activating factor 1 (Homo sapiens, UniProt O14727); format: functional
T2 sequence (O14727 whole entry): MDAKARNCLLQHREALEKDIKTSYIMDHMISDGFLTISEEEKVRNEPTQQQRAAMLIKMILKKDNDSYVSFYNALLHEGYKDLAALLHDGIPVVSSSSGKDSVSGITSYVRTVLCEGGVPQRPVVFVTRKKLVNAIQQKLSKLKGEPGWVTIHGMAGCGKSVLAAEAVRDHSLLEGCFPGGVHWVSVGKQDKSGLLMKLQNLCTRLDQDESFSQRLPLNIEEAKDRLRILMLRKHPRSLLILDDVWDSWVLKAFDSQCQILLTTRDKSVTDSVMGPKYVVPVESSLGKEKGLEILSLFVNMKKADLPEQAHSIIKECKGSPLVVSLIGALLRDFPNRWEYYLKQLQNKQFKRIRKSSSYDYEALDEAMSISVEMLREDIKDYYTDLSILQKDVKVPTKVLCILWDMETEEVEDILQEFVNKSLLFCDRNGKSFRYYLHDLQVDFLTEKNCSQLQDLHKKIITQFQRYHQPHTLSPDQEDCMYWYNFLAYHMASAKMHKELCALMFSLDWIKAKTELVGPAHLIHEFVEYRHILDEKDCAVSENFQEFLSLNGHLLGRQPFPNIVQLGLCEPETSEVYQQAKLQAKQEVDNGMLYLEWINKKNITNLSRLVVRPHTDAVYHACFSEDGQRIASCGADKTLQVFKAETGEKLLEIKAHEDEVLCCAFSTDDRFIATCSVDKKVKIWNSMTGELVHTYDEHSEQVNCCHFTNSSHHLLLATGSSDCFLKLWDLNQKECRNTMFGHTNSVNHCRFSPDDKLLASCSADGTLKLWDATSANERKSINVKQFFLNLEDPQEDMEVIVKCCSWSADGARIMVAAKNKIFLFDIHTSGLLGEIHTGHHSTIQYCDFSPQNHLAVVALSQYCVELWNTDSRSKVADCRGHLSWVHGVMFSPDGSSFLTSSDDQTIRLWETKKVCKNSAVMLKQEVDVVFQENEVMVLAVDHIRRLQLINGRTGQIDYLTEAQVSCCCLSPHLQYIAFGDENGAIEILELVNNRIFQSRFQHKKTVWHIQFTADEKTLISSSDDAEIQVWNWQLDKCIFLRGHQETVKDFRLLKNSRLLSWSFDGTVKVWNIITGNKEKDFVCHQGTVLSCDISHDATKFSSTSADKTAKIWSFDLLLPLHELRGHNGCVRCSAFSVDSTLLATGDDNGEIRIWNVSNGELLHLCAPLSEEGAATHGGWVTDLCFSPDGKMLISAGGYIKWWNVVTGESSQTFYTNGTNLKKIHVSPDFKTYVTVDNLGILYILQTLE

[8] = molecular target: T3, Small ubiquitin-related modifier 1 (Homo sapiens, UniProt P63165); experiment: inhibitors of SUMO1 peptide binding, dose response, biochemical, fluorescence polarization, uHTS hits (AID 624382); format: functional; conditions: read-out: IC50_Mean
[9] = molecular target: T3, Small ubiquitin-related modifier 1; experiment: inhibitors of SUMO1 partner interactions, dose response, biochemical, FRET (AID 624383); format: functional; conditions: read-out: IC50_Mean
INS1 = experiment: beta cell apoptosis inhibitors, cytokine rescue, dose response, luminescence, retest (AID 449756); format: functional, cell-based; conditions: Rattus norvegicus;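 further: cell death triggered by IL-1 beta plus TNF-alpha plus IFN-gamma mixture; protective hits raise ATP signal compared with cytokine alone wells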
Protein Wnt-3a = Protein Wnt-3a (Mus musculus, UniProt P27467); experiment: Wnt3a-driven reporter signaling inhibition, dose response, selectivity assay for Gli-SUFU antagonist project, Wnt-LIGHT cells, luminescence (AID 651570); format: functional; conditions: read-out: IC50_Mean;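 further: Wnt-LIGHT reporter cells stimulated with conditioned medium from Wnt3a-producing cells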
Melanocortin receptor 4 = Melanocortin receptor 4 (Homo sapiens, UniProt P32245); experiment: MC4R antagonist potency on cAMP, dose response, cell-based, TR-FRET, biased antagonists (AID 602298); format: functional;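 further: antagonist potency against agonist-stimulated cAMP production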
[10] = nonselective inhibitors of cellular cAMP signaling, dose response, counter-screen for MC4R biased antagonist project, cell-based, TR-FRET cAMP detection (AID 602305); format: functional;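 further: U2OS cells stimulated with forskolin near its EC80 as the cAMP inducer; potency is for inhibition of forskolin-stimulated cAMP signaling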
[11] = molecular target: Tyrosine-protein phosphatase non-receptor type 11 (Homo sapiens, UniProt Q06124); experiment: SHP2 phosphatase inhibition, dose response, selectivity assay for STEP inhibitor project, biochemical (AID 602367); format: functional; conditions: read-out: IC50_Mean
[12] = molecular target: Tyrosine-protein phosphatase non-receptor type 5 (Homo sapiens, UniProt P54829); experiment: STEP phosphatase inhibitors, confirmation, biochemical, fluorescence intensity, uHTS hits (AID 602372); format: functional; conditions: read-out: IC50_Mean
[13] = molecular target: Dual specificity protein phosphatase 3 (Homo sapiens, UniProt P51452); experiment: VHR phosphatase inhibition, dose response, selectivity assay for STEP inhibitor project, biochemical (AID 602374); format: functional; conditions: read-out: IC50_Mean
[14] = molecular target: T4, Methionyl-tRNA synthetase, putative (Trypanosoma brucei brucei, UniProt Q38C91); format: functional, Trypanosoma brucei brucei strain 927/4 GUTat10.1
T4 sequence (Q38C91 whole entry): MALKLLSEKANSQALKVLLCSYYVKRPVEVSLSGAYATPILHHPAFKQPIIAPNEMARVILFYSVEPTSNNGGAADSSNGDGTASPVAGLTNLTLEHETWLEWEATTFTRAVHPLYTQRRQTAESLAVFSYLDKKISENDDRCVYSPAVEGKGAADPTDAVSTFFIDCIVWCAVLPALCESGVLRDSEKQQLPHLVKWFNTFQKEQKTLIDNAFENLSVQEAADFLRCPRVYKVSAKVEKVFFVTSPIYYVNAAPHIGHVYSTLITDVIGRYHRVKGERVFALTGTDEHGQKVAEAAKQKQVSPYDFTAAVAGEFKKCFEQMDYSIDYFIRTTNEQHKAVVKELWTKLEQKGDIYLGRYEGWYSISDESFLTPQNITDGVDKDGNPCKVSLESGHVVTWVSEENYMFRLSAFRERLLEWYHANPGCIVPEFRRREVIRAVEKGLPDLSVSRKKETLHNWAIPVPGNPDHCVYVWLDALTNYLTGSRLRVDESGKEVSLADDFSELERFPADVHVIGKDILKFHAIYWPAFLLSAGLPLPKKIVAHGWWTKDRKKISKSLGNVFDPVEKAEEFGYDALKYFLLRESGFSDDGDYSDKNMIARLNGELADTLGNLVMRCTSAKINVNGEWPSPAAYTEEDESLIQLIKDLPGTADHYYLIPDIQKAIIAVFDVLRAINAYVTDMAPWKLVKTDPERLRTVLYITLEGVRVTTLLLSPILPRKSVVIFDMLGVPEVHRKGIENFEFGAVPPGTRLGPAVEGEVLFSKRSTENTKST

[15] = Counterscreen for inhibitors of Trypanosoma brucei methionyl tRNA synthetase (MetRS): Luminescence-based cell-based high throughput dose response assay to identify compounds that are cytotoxic to Jurkat human T lymphocyte cells.; format: functional
[16] = molecular target: T4, Methionyl-tRNA synthetase, putative; format: functional, Trypanosoma brucei brucei strain 927/4 GUTat10.1; remark: listed apart in the source
[17] = molecular target: T5, RNA-binding protein pos-1 (Caenorhabditis elegans, UniProt G5EF15); experiment: inhibitors of POS-1/mex-3 RNA binding, dose response, biochemical, fluorescence polarization (AID 1964);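 further: purified POS-1 fused to maltose binding protein made in E. coli; potency of compounds blocking POS-1 binding to fluorescent RNA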
T5 sequence (G5EF15 whole entry): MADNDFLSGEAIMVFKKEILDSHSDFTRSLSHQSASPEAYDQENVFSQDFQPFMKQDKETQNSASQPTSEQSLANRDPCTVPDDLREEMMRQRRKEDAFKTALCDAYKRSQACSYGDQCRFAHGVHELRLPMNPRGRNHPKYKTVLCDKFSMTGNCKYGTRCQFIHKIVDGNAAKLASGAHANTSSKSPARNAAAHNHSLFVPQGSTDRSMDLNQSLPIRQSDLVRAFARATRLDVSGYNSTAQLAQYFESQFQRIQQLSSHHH

[18] = molecular target: T6, Zinc finger protein mex-5 (Caenorhabditis elegans, UniProt Q9XUB2); experiment: MEX-5/TCR-2 RNA interaction inhibitors, dose response, biochemical, C. elegans, fluorescence polarization (AID 1960)
T6 sequence (Q9XUB2 whole entry): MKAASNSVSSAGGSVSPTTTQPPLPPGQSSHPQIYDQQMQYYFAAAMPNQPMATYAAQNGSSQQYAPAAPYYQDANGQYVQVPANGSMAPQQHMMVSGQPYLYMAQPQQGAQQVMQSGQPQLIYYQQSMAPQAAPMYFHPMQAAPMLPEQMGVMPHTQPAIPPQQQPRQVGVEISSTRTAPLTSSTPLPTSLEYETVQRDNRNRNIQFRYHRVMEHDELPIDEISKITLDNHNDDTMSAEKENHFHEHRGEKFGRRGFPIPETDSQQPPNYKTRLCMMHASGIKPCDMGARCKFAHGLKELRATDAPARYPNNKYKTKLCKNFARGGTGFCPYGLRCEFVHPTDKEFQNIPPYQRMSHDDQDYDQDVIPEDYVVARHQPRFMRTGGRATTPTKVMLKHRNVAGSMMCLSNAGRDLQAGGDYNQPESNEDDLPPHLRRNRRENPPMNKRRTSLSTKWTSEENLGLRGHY

Vero [19] = experiment: Vero cell cytotoxicity, cytotoxicity control for flavivirus capping enzyme inhibitors (AID 588742); format: functional; conditions: Chlorocebus sabaeus
Vero [20] = experiment: cells; format: functional; conditions: Chlorocebus sabaeus
Genome polyprotein = Genome polyprotein (dengue virus type 2, UniProt P29990); experiment: Dengue-2 NS5 methyltransferase inhibitors, primary screen, biochemical, confirmation dose response (AID 588689); format: functional
[21] = Shn3 3'UTR reporter inhibitors, dose response, cell-based, Clone20 osteoblasts, firefly luciferase, cherry-picked (AID 624132); format: functional;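 further: firefly luciferase luminescence from reporter carrying the Shn3 3'UTR in osteoblasts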
[22] = HepG2 cell cytotoxicity, dose response, cytotoxicity control for Shn3 inhibitor project, CellTiter-Glo, cherry-picked (AID 624134); format: functional, cell-based
[23] = control 3'UTR Renilla luciferase suppression, dose response, counter-screen for Shn3 inhibitor project, cell-based, Clone20-Shn3RL, cherry-picked (AID 624133); format: functional
[24] = molecular target: Mitogen-activated protein kinase 13 (Homo sapiens, UniProt O15264); format: functional
[25] = NIH-3T3 fibroblast cytotoxicity, dose response, cytotoxicity control for antifungal single agent project, cell-based, Alamar Blue, dry powder (AID 602188); format: functional
[26] = ARNT/TACC3 interaction disruptors, potency, confirmation, biochemical, AlphaScreen, cherry-picked samples (AID 651703); format: functional, Homo sapiens;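 further: His-tagged ARNT PAS-B domain paired with GST-TACC3 E629A dimer coactivator fragment; potency of inhibitors that break up the complex and lower AlphaScreen signal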

T3 sequence (P63165 whole entry): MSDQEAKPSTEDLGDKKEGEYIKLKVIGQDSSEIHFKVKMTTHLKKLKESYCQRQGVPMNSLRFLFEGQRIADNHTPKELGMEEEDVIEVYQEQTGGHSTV
Sequence of Dual specificity protein phosphatase 3 (P51452 whole entry): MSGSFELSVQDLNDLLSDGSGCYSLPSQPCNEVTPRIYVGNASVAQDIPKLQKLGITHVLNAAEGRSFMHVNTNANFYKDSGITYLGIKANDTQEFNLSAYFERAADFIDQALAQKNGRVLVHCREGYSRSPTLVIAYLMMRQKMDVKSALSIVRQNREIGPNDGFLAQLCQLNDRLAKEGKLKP
Sequence of Protein Wnt-3a (P27467 whole entry): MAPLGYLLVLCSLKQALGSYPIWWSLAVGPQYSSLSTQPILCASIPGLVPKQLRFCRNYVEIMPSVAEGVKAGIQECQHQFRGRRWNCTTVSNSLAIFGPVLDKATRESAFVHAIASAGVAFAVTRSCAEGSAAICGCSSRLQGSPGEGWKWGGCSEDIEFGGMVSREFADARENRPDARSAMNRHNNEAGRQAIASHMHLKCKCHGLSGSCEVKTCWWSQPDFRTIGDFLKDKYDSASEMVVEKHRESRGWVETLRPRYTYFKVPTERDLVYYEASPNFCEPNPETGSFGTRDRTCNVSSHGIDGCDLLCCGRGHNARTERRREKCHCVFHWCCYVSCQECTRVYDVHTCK
Sequence of Tyrosine-protein phosphatase non-receptor type 11 (Q06124 whole entry): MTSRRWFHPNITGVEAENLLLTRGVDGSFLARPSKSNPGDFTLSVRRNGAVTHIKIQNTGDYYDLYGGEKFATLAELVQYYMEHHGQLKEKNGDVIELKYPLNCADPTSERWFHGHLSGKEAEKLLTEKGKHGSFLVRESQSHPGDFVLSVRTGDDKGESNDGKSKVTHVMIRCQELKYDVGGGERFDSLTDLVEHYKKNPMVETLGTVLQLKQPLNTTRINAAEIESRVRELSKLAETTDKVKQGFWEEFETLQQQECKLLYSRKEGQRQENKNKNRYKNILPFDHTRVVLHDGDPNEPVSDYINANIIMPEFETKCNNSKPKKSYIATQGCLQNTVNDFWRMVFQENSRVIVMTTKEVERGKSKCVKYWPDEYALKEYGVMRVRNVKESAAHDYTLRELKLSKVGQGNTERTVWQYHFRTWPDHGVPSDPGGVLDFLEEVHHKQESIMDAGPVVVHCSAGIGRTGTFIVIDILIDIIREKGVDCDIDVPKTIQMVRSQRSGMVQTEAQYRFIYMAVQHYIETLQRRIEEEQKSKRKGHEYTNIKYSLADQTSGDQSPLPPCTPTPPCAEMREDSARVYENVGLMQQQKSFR
Sequence of Mitogen-activated protein kinase 13 (O15264 whole entry): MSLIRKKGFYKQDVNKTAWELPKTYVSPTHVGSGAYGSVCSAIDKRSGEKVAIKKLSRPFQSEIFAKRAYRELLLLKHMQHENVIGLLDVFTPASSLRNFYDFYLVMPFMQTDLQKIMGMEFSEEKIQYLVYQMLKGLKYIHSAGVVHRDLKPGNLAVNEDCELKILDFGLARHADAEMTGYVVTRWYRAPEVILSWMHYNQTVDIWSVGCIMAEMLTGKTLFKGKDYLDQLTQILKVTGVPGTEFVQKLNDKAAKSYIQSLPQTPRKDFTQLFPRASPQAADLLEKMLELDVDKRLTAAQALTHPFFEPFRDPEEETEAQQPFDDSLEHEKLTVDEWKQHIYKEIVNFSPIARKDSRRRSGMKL
Sequence of Melanocortin receptor 4 (P32245 whole entry): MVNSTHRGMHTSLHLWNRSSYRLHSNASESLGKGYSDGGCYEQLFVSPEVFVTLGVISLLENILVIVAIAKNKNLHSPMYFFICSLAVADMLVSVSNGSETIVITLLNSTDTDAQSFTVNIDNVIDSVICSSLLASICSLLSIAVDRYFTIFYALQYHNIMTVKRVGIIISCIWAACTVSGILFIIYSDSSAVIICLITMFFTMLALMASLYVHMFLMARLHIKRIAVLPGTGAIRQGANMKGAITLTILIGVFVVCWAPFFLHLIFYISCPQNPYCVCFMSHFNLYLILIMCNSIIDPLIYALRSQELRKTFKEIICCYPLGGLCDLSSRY
Sequence of Genome polyprotein (P29990 2492-3391 limits assumed): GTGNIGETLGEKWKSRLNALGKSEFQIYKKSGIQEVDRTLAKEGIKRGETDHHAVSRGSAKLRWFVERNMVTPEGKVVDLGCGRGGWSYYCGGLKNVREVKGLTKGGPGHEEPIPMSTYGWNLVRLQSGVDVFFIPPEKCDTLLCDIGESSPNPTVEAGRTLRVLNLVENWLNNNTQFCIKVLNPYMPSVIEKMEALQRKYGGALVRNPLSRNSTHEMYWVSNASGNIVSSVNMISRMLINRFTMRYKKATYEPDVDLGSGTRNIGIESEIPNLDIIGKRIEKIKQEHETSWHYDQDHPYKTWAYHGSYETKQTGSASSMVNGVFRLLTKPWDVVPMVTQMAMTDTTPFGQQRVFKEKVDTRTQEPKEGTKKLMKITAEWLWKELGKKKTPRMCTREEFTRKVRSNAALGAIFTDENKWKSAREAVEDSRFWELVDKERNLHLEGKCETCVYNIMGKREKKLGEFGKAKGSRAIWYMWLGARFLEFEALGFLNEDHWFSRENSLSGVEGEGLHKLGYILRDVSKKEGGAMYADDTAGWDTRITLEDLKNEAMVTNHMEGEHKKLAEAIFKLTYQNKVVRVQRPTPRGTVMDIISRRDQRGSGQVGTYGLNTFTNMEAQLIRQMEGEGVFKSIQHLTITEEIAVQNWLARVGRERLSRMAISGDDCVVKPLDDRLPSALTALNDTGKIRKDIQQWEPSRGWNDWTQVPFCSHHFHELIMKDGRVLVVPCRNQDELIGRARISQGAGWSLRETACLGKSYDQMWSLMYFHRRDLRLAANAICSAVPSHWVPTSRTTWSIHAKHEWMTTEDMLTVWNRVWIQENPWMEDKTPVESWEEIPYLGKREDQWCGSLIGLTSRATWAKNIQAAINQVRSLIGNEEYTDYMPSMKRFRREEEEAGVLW
Sequence of Eukaryotic translation initiation factor 4E (P63073 whole entry): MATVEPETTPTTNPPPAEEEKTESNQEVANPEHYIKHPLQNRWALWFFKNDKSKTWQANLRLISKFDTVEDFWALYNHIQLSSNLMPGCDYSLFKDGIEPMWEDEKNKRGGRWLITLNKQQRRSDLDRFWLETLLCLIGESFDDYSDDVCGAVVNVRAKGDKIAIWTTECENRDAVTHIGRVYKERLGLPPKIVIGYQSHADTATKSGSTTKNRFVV
Sequence of Tyrosine-protein phosphatase non-receptor type 5 (P54829 whole entry): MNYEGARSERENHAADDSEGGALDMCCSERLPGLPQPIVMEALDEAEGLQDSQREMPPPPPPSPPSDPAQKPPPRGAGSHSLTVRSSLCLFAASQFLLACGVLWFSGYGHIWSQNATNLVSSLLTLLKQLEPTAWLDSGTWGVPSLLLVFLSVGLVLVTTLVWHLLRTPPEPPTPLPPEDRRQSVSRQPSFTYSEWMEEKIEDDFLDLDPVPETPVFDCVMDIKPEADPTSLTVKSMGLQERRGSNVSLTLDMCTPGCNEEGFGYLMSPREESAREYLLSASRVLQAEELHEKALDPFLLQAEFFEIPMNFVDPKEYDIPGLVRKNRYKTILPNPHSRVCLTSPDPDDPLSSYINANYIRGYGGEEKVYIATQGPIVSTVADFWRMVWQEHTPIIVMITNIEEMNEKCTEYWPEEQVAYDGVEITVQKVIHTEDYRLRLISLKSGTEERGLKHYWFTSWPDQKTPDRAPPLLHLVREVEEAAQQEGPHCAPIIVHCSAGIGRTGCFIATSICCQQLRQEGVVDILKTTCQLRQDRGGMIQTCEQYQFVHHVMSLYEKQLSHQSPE

CCCCCCCCCCCCCCCC[n+]1ccc(C(N)=O)cc1
EC50 [1]: 6.2 µM (active) | EC50 [2]: 6.46 µM (active) | IC50 [3]: > 20 µM (inactive) | IC50 [4]: 25.1 µM (active) | IC50 [5]: 74.4 µM (inactive) | AC50 [6]: 8.77 µM (active) | IC50 [7]: 25.7 µM (active) | IC50 [8]: > 66.6 µM (inactive) | IC50 [9]: 13.8 µM (active)

CCN(CC)C(=O)c1ccc(S(=O)(=O)N2CCC(c3nc4ccccc4s3)CC2)cc1
AC50 (INS1): 5.69 µM (active) | IC50 (Protein Wnt-3a): 39.7 µM (inactive)

CCN(C(=O)COC(=O)CSc1ccc(C(N)=O)cc1[N+](=O)[O-])C1CCCCC1
IC50 (Melanocortin receptor 4): > 64.6 µM (inactive) | IC50 [10]: > 64.6 µM (inactive)

Cc1ccc(S(=O)(=O)c2cnc3ccc(Cl)cc3c2O)cc1
IC50 [11]: 14.5 µM (active) | IC50 [12]: 39.1 µM (inactive) | IC50 [13]: 26.9 µM (inactive) | IC50 [14]: 119 µM (inactive) | IC50 [15]: 83.4 µM (inactive) | IC50 [16]: 4.9 µM (active)

CCOc1cc(/C=C2/C(=O)ON=C2C)ccc1OCc1ccccc1F
EC50 [17]: 53.5 µM (active) | EC50 [18]: 37.3 µM (inconclusive) | CC50 (Vero [19]): > 40 µM (active) | CC50 (Vero [20]): > 25 µM (active) | IC50 (Genome polyprotein): 41.5 µM (active) | AC50 [21]: 6.95 µM (active) | AC50 [22]: 69.3 µM (active) | AC50 [23]: 28.2 µM (active)

NC1C2CN(c3nc4c(cc3F)c(=O)c(C(=O)O)cn4-c3ccc(F)cc3F)CC12 (stereo not given)
Ki [24]: > 7.94 µM (inactive)

Oc1c(C(c2ccccc2Cl)N2CCCCC2)ccc2cccnc12 (stereo not given)
AC50 [25]: 5.69 µM (active)

C[C@@H]1CN([C@H](C)CO)C(=O)c2cc(N(C)C)ccc2O[C@@H](C)CCCCO[C@@H]1CN(C)Cc1ccc2c(c1)OCO2
AC50 [26]: 74.9 µM (active)
